According to article PMC9095706, “TMEM16 scramblases thin the membrane to enable lipid scrambling” (Nature Communications, 2022):

Columns and labels:
afTMEM16 = target: T1, afTMEM16 (Aspergillus fumigatus, UniProt Q4WA18); assay: cryo-EM structure ([…] Å) in MSP1E3 nanodiscs; format: binding; conditions: 0.5 mM Ca2+; 7:3 DOPC:DOPG nanodisc; lipids D4 and D5 built as PG, near dimer interface and lipid pathway; models started from POPG (PGW) and truncated to density
T1 construct: gene AFUA_4G02970; expressed in S. cerevisiae from pDDGFP2, His tag removed with TEV protease, digitonin-purified homodimer, in MSP1E3 nanodiscs or proteoliposomes
T1 sequence (Q4WA18 1-735): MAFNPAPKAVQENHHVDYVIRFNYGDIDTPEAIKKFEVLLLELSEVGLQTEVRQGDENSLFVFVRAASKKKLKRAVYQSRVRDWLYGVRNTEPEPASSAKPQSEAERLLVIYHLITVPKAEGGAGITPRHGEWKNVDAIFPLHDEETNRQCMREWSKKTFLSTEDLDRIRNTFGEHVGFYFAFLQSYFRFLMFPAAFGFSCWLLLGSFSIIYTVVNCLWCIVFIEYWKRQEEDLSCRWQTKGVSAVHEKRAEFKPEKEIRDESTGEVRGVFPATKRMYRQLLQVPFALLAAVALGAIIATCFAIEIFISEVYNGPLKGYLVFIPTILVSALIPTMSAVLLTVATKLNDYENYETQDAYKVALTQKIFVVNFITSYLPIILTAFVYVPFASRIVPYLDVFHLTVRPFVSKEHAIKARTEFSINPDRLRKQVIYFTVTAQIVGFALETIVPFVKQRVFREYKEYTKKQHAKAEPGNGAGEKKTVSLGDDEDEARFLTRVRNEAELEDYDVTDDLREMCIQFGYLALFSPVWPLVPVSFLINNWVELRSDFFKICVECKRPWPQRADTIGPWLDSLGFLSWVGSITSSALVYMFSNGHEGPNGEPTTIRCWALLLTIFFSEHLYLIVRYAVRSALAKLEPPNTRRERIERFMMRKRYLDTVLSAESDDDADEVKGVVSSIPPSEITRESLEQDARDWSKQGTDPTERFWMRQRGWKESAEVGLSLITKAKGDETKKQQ

[1] = target: afTMEM16 scramblase from Aspergillus fumigatus (Aspergillus fumigatus); assay: cryo-EM structure; afTMEM16 reconstituted in lipid nanodiscs (MSP1E3 or MSP2N2; C14, C18 or C22 lipids, 7 PC:3 PG), 50 mM HEPES pH 8.0, 150 mM KCl with 0.5 mM CaCl2 or 5 mM EDTA; homodimer, C2 symmetric reconstructions

Row | stoichiometry N [1] | Compound | cryo-EM structure (2.3 Å) in MSP1E3 nanodiscs (afTMEM16)
1 |  | CCCCCCCC/C=C\CCCCCCCC(=O)OC[C@H](COP(=O)(O)OCC(O)CO)OC(=O)CCCCCCC/C=C\CCCCCCCC (mixture of isomers) [1,2-dioleoyl-sn-glycero-3-phospho-(1′-rac-glycerol)] | The downward slope of the OL starts at D5, a well-defined PG lipid
2 | 2 | afTMEM16 scramblase from Aspergillus fumigatus (natural protein) | 
